Assay [1] concerns the target Plasmepsin-2 (PM-2; Plm II) (Plasmodium falciparum (isolate HB3), UniProt P46925). Description: Plasmepsin-2 enzyme inhibition assay. The assay is classed as biochemical. Here is the method: Plasmepsin-2 (PM-2; Plm II) and Plasmepsin (PM-4; Plm IV) expression and purification was performed following the published protocols (Istvan E S and Goldberg D E, 2005). The final purified protein was activated by diluting the protein to 0.3 mg/mL in activating buffer (0.1 M citrate pH 4.5, 0.1% Tween-20, 50 mM dithiothreitol) and incubated at room temperature for 40 min, then the activated enzyme was diluted in assay buffer (50 mM sodium acetate pH 4.7, 0.01% Tween-20). The enzymatic inhibition reaction was performed in 384 well plates with a total volume of 20 μl. 10 μl of diluted PM-2 or PM-4 enzyme was added to the 384-well plate except blank wells (blank wells add 10 μL of assay buffer) and 20 nL of serials of diluted 1000× compounds were added to the wells with 520 Echo® Liquid Handling System (Labcyte Inc.). 10 μL PM-2 peptide substrate (AnaSpec, Cat#, 62050) with assay buffer was then added to final concentration of 20 μM to start the reaction. After incubation the reaction at room temperature for 60 min, the fluorescence intensity at Ex/Em=360 nm/535 nm was measured using EnVision multilabel plate reader (Perkin-Elmer). The IC50 values were obtained using Graph Pad Prism 4 and are reported in Tables 8 and 9 below as PM-2 IC50 values.

The subject of assay [2] is Plasmodium falciparum 3D7 (CQ-sensitive). Description: In vitro antimalarial assay (malaria SYBR Green I-based fluorescence, MSF), 3D7. The assay is classed as cell-based. The method, then:
Stock solutions of each test drug were prepared in DMSO at a concentration of 20 mM. The drug solutions were serially diluted with culture medium and distributed to asynchronous parasite cultures on 96-well plates in quadruplicate in a total volume of 100 μL to achieve 0.5% parasitemia with a 2% hematocrit in a total volume of 100 pt. […] After incubation, 100 μL of lysis buffer with 0.2 μL/mL SYBR Green I was added to each well.
Antimalarial potency of compounds was determined by this technique for both Plasmodium falciparum 3D7 (CQ-sensitive) and Dd2 (multi-drug resistant) strains.

Setting [3] is: 3D7, Table 13, read-out: 3D7 IC50.

Structures are written as SMILES. Read-outs that look alike come from different tables or passages of the source.

Plasmepsin-2 (PM-2; Plm II), sequence (P46925 125-453 limits assumed): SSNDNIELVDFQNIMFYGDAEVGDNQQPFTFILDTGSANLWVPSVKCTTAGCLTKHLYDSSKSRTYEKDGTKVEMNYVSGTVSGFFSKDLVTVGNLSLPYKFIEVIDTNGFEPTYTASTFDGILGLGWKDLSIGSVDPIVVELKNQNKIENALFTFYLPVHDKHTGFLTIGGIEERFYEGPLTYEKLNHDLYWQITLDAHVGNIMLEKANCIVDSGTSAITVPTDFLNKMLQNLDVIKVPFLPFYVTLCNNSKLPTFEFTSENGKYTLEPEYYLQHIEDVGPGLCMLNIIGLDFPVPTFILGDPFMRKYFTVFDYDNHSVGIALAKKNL

For `COc1ccc(C2(c3ccc(OC)cc3)NC(=S)N(C3CCCCC3)C2=O)cc1`, the IC50 in assay [1] (Table 8, read-out: PM-II IC50) is greater than 10000 nM; in assay [2] (3D7, Table 8, read-out: Pf 3D7 IC50), greater than 5 µM.
As for `N=C1NC(c2ccccc2)(c2ccccc2)C(=O)N1Cc1ccccc1` [Example 102, 3-benzyl-2-imino-5,5-diphenyl-imidazolidin-4-one], the IC50 was 33.1 nM in assay [1] (Table 13, read-out: PM-2 IC50); 8.29 µM in assay [2] (3D7, Table 10, read-out: Pf3D7 IC50); 8.29 µM in assay [2] (setting [3]).
For `COc1cccc(C2(c3cccc(OC)c3)NC(=N)N(Cc3ccccc3)C2=O)c1` [Example 105, 3-benzyl-2-imino-5,5-bis(3-methoxy-phenyl)imidazolidin-4-one], the IC50 worked out at 57.4 nM in assay [1] (Table 13, read-out: PM-2 IC50) and 6.31 µM in assay [2] (setting [3]).
Turning to `CN1C(=N)NC(c2ccccc2)(c2cccc(-c3cccnc3)c2)C1=O` (stereo not drawn) [Example 135, 2-imino-3-methyl-5-phenyl-5-[3-(pyridin-3-yl)phenyl]-imidazolidin-4-one], the IC50 in assay [1] (Table 12, read-out: PM-2 IC50) worked out at 1010 nM.
For `COc1ccc(C2(c3ccccc3)NC(=N)N(C3CCCCC3)C2=O)cc1` (stereo not drawn) [Example 141, 3-cyclohexyl-2-imino-5-(4-methoxyphenyl)-5-phenylimidazolidin-4-one], the IC50 in assay [1] (Table 13, read-out: PM-2 IC50) turned out to be 10.6 nM; in assay [2] (3D7, Table 11, read-out: Pf 3D7 IC50), 0.533 µM; in assay [2] (setting [3]) it was 0.533 µM.
`N=C1NC(c2ccccc2)(c2ccccc2)C(=O)N1C1CC1` [Example 142, 3-cyclopropyl-2-imino-5,5-diphenylimidazolidin-4-one]: the IC50 in assay [1] (Table 13, read-out: PM-2 IC50) was 1790 nM; in assay [2] (setting [3]), 10.8 µM.
As for `C#Cc1cccc(-c2cccc(C3(C4CC4)NC(=N)N(C4CCOCC4)C3=O)c2)c1` (stereo not drawn) [Example 497, 5-cyclopropyl-5-(3′-ethynyl-[1,1′-biphenyl]-3-yl)-2-imino-3-(tetrahydro-2H-pyran-4-yl)imidazolidin-4-one], the IC50 in assay [2] (setting [3]) came to 1.15 µM.
With `N=C1NC(c2ccc(F)c(F)c2)(C2CC2)C(=O)N1C1CCOCC1` (stereo not drawn) [Example 498, 5-cyclopropyl-5-(3,4-difluorophenyl)-2-imino-3-(tetrahydro-2H-pyran-4-yl)imidazolidin-4-one], the IC50 in assay [2] (setting [3]) turned out to be 1.29 µM.
On the same count and under the same terms, then `COc1cccc(C2(C3CC3)NC(=N)N(C3CCOCC3)C2=O)c1` (stereo not drawn) [Example 499, 5-cyclopropyl-2-imino-5-(3-methoxyphenyl)-3-(tetrahydro-2H-pyran-4-yl)imidazolidin-4-one], with 1.39 µM.
Still for that read-out and setting: then `N=C1NC(c2ccccc2Cl)(C2CC2)C(=O)N1C1CCOCC1` (stereo not drawn) [Example 500, 5-(2-chlorphenyl)-5-cyclopropyl-2-imino-3-(tetrahydro-2H-pyran-4-yl)imidazolidin-4-one], with 2.36 µM; and `COc1cc(C2(C3CCCCC3)NC(=N)N(C3CCOCC3)C2=O)ccc1Cl` (stereo not drawn) [Example 501, 5-(4-chloro-3-methoxyphenyl)-5-cyclohexyl-2-imino-3-(tetrahydro-2H-pyran-4-yl)imidazolidin-4-one], with 1.54 µM.
Turning to `N=C1NC(c2cccc(-c3cccnc3)c2)(C2CC2)C(=O)N1C1CCCCC1` (stereo not drawn) [Example 512, 3-cyclohexyl-5-cyclopropyl-2-imino-5-(3-(pyridin-3-yl)phenyl)imidazolidin-4-one], the IC50 in assay [2] (3D7, read-out: 3D7 IC50 (μM), Table 13) is 0.38 µM.
On to `N=C1NC(c2cccc(-c3cncc(Cl)c3)c2)(C2CC2)C(=O)N1C1CCCCC1` (stereo not drawn) [Example 514, 5-(3-(5-chloropyridin-3-yl)phenyl)-3-cyclohexyl-5-cyclopropyl-2-iminoimidazolidin-4-one], for which the IC50 in assay [2] (setting [3]) stood at 0.97 µM.
As to `CC#Cc1cncc(-c2cccc(C3(C4CC4)NC(=N)N(C4CCCCC4)C3=O)c2)c1` (stereo not drawn) [Example 515, 3-cyclohexyl-5-cyclopropyl-2-imino-5-(3-(5-(prop-1-yn-1-yl)pyridin-3-yl)phenyl)imidazolidin-4-one], the IC50 in assay [2] (setting [3]) was determined as 0.81 µM.
For the molecule `N=C1NC(c2cccc(-c3cncc(Cl)c3)c2)(C2CCCCC2)C(=O)N1C1CCOCC1` (stereo not drawn) [Example 516, 5-(3-(5-chloropyridin-3-yl)phenyl)-5-cyclohexyl-2-imino-3-(tetrahydro-2H-pyran-4-yl)imidazolidin-4-one], the IC50 in assay [2] (setting [3]) was 0.28 µM.
The same measure, in the same setting: then `COc1ccccc1C1(C2CC2)NC(=N)N(C2CCOCC2)C1=O` (stereo not drawn) [Example 518, 5-cyclopropyl-2-imino-5-(2-methoxyphenyl)-3-(tetrahydro-2H-pyran-4-yl)imidazolidin-4-one], with 5.32 µM; and `N=C1NC(c2cccc(O)c2)(C2CC2)C(=O)N1C1CCOCC1` (stereo not drawn) [Example 519, 5-cyclopropyl-5-(3-hydroxyphenyl)-2-imino-3-(tetrahydro-2H-pyran-4-yl)imidazolidin-4-one], with 5.65 µM.
On to `N=C1NC(c2ccc(O)cc2)(c2ccc(O)cc2)C(=O)N1C1CCCCC1` [Example 547, 3-cyclohexyl-5,5-bis(4-hydroxyphenyl)-2-iminoimidazolidin-4-one], for which the IC50 in assay [2] (setting [3]) was 0.85 µM.
On the same count and under the same terms, under `N=C1NC(c2cccc(O)c2)(C2CC2)C(=O)N1C1CCCCC1` (stereo not drawn) [Example 549, 3-cyclohexyl-5-cyclopropyl-5-(3-hydroxyphenyl)-2-iminoimidazolidin-4-one] stands 1.33 µM; under `N=C1NC(c2ccc(O)cc2)(c2ccc(O)cc2)C(=O)N1C1CCOCC1` [Example 550, 5,5-bis(4-hydroxyphenyl)-2-imino-3-(tetrahydro-2H-pyran-4-yl)imidazolidin-4-one], 2.48 µM.
Still for that read-out and setting: under `N=C1NC(c2ccc(O)cc2)(C2CC2)C(=O)N1C1CCCCC1` (stereo not drawn) [Example 551, 3-cyclohexyl-5-cyclopropyl-5-(4-hydroxyphenyl)-2-iminoimidazolidin-4-one] stands 0.78 µM; under `COc1ccc(C2(c3ccc(OC)cc3)NC(=N)N(C3CCN(Cc4cc(Cl)ccc4O)CC3)C2=O)cc1` [Example 569, 3-(1-(5-chloro-2-hydroxybenzyl)piperidin-4-yl)-2-imino-5,5-bis(4-methoxyphenyl)-imidazolidin-4-one], 0.45 µM; under `N=C1NC(c2cccc(Oc3ccccc3)c2)(C2CC2)C(=O)N1C1CCCCC1` (stereo not drawn) [Example 570, 3-cyclohexyl-5-cyclopropyl-2-imino-5-(3-phenoxyphenyl)imidazolidin-4-one], 2.87 µM.
Still for that read-out and setting: under `COc1ccc(C2(c3ccc(OC)cc3)NC(=N)N(C3CCN(Cc4ccccc4O)CC3)C2=O)cc1` [Example 571, 3-(1-(2-hydroxybenzyl)piperidin-4-yl)-2-imino-5,5-bis(4-methoxyphenyl)-imidazolidin-4-one] stands 0.4 µM; under `N=C1NC(c2ccccc2O)(C2CC2)C(=O)N1C1CCCCC1` (stereo not drawn) [Example 573, 3-cyclohexyl-5-cyclopropyl-5-(2-hydroxyphenyl)-2-iminoimidazolidin-4-one], greater than 20 µM; under `N=C1NC(c2ccc(Cl)cc2)(C2CCCCC2)C(=O)N1C1CCOCC1` (stereo not drawn) [Example 574, 5-(4-chlorophenyl)-5-cyclohexyl-2-imino-3-(tetrahydro-2H-pyran-4-yl)imidazolidin-4-one], 0.27 µM.
Regarding `N=C1NC(c2ccc(Cl)cc2)(C2CCCCC2)C(=O)N1C1CCCCC1` (stereo not drawn) [Example 575, 5-(4-chlorophenyl)-3,5-dicyclohexyl-2-iminoimidazolidin-4-one], in assay [2] (setting [3]), the IC50 amounted to 1.09 µM.
Still for that read-out and setting: under `N=C1NC(c2ccc(Cl)cc2)(C2CC2)C(=O)N1C1CCCCC1` (stereo not drawn) [Example 577, 5-(4-chlorophenyl)-3-cyclohexyl-5-cyclopropyl-2-iminoimidazolidin-4-one] stands 1.67 µM.
`CCC(CN1C(=N)NC(c2ccccc2)(c2ccccc2)C1=O)c1ccccc1` (stereo not drawn) [drawing 195]: the IC50 in assay [2] (3D7, read-out: Pf3D7 IC50 (μM), Table 10) was found to be 2.76 µM.

The values are drawn from US9353089B2, “Compositions and methods for the treatment of malaria” (Saint Louis University, priority 2013, dated 2016).
